Results as given in ChEMBL document CHEMBL1155952, “4-Amino-6-arylamino-pyrimidine-5-carbaldehyde hydrazones as potent ErbB-2/EGFR dual kinase inhibitors” (Bioorg Med Chem Lett, 2008).

Legend:
[1] = biological target: T1, Receptor tyrosine-protein kinase erbB-2 (Homo sapiens, UniProt P04626); assay: Inhibition of human ErB2 phosphorylation in human SKBR3 cells; format: cell-based, SK-BR-3
[2] = biological target: T1, Receptor tyrosine-protein kinase erbB-2; assay: Inhibition of human ErbB2
[3] = biological target: Epidermal growth factor receptor (Homo sapiens, UniProt P00533); assay: Inhibition of human EGFR expressed in SF9 cells
[4] = test system: HeLa; assay: Antiproliferative activity against human HeLa cells; format: functional, cell-based
[5] = Plasma concentration in Sprague-Dawley rat at 10 mg/kg, po administered in 0.5% hydroxypropyl methylcellulose after 0.5 hrs; format: ADME, organism-based; design: dose 10 mg/kg, route oral
[6] = test system: SK-BR-3; assay: Antiproliferative activity against human SKBR3 cells overexpressing ErB2; format: functional, cell-based
[7] = biological target: RAF proto-oncogene serine/threonine-protein kinase (Homo sapiens) (UniProt P04049); assay: Inhibition of c-Raf at 3 uM
[8] = biological target: Tyrosine-protein kinase Lck (Homo sapiens) (UniProt P06239); assay: Inhibition of LCK at 3 uM
[9] = Plasma concentration in Sprague-Dawley rat at 10 mg/kg, po administered in 0.5% hydroxypropyl methylcellulose after 2 hrs; format: ADME, organism-based; design: dose 10 mg/kg, route oral
[10] = test system: BT-474; assay: cells; settings: Homo sapiens
Description: Antiproliferative activity against human BT474 cells overexpressing ErB2

[11] = Plasma concentration in Sprague-Dawley rat at 10 mg/kg, po administered in 0.5% hydroxypropyl methylcellulose after 1 hr; format: ADME, organism-based; design: dose 10 mg/kg, route oral
[12] = test system: NCI-N87; assay: Antiproliferative activity against human N87 cells overexpressing ErB2; format: functional, cell-based
[13] = Plasma concentration in Sprague-Dawley rat at 10 mg/kg, po administered in 10% solutol in D5W after 0.5 hrs; format: ADME, organism-based; design: dose 10 mg/kg, route oral
[14] = Plasma concentration in Sprague-Dawley rat at 10 mg/kg, po administered in 10% solutol in D5W after 1 hr; format: ADME, organism-based; design: dose 10 mg/kg, route oral
[15] = Plasma concentration in Sprague-Dawley rat at 10 mg/kg, po administered in 10% solutol in D5W after 4 hrs; format: ADME, organism-based; design: dose 10 mg/kg, route oral
[16] = Plasma concentration in Sprague-Dawley rat at 10 mg/kg, po administered in 10% solutol in D5W after 2 hrs; format: ADME, organism-based; design: dose 10 mg/kg, route oral

Epidermal growth factor receptor, sequence (P00533 whole entry): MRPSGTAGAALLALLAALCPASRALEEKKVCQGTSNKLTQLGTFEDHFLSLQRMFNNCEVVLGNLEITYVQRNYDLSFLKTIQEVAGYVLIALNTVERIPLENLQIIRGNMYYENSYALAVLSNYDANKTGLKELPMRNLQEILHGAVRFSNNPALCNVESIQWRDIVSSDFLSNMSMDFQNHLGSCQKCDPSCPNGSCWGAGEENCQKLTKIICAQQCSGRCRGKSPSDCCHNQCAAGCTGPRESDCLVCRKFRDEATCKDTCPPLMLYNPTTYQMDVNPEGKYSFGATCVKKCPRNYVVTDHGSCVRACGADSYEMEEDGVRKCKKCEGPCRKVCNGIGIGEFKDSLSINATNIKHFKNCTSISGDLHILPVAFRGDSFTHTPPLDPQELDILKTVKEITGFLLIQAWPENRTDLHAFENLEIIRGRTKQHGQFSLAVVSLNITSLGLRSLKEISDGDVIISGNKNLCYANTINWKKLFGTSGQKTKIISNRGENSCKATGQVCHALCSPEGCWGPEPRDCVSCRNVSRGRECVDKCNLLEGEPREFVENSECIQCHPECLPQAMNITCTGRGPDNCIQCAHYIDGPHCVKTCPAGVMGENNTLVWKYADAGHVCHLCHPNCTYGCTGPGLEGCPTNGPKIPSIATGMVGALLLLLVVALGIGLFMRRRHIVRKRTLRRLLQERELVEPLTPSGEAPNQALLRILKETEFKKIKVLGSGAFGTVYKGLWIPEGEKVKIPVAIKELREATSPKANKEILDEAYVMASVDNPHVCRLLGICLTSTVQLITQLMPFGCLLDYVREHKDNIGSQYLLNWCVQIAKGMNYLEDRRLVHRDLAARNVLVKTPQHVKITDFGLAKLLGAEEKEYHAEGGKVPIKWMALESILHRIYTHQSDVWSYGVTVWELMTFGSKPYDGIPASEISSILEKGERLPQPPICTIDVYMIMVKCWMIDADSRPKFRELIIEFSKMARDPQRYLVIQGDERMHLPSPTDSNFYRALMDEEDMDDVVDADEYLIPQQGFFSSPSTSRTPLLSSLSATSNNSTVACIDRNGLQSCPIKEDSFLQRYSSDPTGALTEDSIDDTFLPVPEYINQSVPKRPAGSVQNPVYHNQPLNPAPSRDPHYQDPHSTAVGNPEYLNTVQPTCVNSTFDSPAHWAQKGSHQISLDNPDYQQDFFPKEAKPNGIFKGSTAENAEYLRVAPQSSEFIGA
T1 sequence (P04626 whole entry): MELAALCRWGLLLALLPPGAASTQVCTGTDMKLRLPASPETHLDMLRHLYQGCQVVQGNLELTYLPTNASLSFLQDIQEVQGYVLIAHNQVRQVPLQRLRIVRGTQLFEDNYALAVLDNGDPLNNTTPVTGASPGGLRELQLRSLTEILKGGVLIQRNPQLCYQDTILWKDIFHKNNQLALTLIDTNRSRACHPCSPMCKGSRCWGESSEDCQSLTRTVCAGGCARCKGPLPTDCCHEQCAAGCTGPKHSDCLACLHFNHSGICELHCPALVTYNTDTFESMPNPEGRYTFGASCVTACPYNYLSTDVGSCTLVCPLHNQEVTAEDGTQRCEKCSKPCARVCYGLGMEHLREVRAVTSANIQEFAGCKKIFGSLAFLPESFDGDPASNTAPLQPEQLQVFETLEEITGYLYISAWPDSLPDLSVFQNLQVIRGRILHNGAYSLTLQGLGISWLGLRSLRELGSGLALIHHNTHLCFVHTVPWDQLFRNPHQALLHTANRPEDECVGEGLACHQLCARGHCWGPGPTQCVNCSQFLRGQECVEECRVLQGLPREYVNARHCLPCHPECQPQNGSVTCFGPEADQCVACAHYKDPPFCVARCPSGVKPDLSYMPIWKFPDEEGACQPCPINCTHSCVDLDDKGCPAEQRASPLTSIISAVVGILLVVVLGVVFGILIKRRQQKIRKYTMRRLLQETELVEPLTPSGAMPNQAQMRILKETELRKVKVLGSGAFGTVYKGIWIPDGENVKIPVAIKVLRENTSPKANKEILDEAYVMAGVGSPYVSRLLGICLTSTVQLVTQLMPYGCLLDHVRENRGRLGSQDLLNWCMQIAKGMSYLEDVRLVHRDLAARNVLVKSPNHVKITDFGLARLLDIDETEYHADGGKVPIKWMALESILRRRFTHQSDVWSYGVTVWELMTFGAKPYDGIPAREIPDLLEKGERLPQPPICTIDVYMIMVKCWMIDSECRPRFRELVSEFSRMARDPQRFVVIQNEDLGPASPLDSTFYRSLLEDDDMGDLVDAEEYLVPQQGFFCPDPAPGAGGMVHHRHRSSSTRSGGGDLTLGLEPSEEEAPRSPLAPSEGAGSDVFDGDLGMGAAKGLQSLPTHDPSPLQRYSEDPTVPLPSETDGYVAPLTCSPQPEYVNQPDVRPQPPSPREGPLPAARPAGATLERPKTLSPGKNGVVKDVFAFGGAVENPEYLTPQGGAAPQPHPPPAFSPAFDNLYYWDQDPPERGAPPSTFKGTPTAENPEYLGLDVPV
RAF proto-oncogene serine/threonine-protein kinase (Homo sapiens), sequence (P04049 whole entry): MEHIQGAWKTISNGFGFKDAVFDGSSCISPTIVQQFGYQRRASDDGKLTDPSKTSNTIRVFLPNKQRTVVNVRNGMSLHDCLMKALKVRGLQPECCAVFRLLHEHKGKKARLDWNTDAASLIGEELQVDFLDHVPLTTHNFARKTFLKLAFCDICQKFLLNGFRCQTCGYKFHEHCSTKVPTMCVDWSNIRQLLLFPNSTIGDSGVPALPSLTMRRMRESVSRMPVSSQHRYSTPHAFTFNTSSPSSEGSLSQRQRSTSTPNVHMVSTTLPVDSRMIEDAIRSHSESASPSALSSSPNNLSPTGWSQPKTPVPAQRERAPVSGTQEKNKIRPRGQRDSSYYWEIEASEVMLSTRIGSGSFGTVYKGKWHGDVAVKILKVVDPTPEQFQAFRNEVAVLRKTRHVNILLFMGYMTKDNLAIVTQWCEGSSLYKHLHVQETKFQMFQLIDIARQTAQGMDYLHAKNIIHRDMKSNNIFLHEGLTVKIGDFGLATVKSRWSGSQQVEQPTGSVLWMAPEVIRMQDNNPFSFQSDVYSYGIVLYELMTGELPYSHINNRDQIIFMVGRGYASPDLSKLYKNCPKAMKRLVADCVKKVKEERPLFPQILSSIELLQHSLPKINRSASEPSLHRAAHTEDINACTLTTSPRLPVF
Tyrosine-protein kinase Lck (Homo sapiens), sequence (P06239 2-509 limits assumed): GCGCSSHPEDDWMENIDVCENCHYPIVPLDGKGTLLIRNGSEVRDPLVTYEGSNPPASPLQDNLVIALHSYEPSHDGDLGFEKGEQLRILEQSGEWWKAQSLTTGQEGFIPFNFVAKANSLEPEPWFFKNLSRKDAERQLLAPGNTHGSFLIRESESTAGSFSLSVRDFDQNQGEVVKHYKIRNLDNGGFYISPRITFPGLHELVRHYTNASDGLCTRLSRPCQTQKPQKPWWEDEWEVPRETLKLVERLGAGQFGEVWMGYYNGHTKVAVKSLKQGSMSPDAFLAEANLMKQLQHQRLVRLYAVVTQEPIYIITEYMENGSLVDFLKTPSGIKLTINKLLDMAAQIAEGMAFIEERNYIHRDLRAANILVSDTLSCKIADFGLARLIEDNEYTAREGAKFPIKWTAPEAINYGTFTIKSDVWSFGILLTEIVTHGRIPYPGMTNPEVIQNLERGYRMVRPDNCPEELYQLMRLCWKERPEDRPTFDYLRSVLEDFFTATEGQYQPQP

SMILES | IC50 [1] [nM] | IC50 [2] [nM] | IC50 [3] [nM] | IC50 [4] [nM] | concentration at 0.5 h [5] [ng/mL] | IC50 [6] [nM] | inhibition [7] [%] | inhibition [8] [%] | concentration at 2 h [9] [ng/mL] | IC50 [10] [nM] | concentration at 1 h [11] [ng/mL] | IC50 [12] [nM] | concentration at 0.5 h [13] [ng/mL] | concentration at 1 h [14] [ng/mL] | concentration at 4 h [15] [ng/mL] | concentration at 2 h [16] [ng/mL]
CN1CCN(/N=C/c2c(N)ncnc2Nc2ccc3c(cnn3Cc3cccc(F)c3)c2)CC1 | 509 | 8 | 16 | – | – | – | – | – | – | – | – | – | – | – | – | –
Nc1ncnc(Nc2ccc3c(cnn3Cc3cccc(F)c3)c2)c1/C=N/N1CCOCC1 | 83 | 7 | 16 | > 100000 | 26.1 | 122 | 47 | 71 | 1.5 | 31 | 21.6 | 91 | – | – | – | –
Nc1ncnc(Nc2ccc3c(cnn3Cc3cccc(F)c3)c2)c1/C=N/NCC(F)(F)F | 258 | 20 | 52 | – | – | – | – | – | – | – | – | – | – | – | – | –
COC[C@H]1CCCN1/N=C/c1c(N)ncnc1Nc1ccc2c(cnn2Cc2cccc(F)c2)c1 | – | 72 | 31 | – | – | – | – | – | – | – | – | – | – | – | – | –
Nc1ncnc(Nc2ccc3c(cnn3Cc3cccc(F)c3)c2)c1/C=N/N1CCN(CCO)CC1 | 54 | 8 | 9 | > 100000 | – | 58 | – | – | – | 14 | – | 58 | – | – | – | –
CN/N=C/c1c(N)ncnc1Nc1ccc2c(cnn2Cc2cccc(F)c2)c1 | 361 | 84 | 12 | – | – | – | – | – | – | – | – | – | – | – | – | –
Nc1ncnc(Nc2ccc3c(cnn3Cc3cccc(F)c3)c2)c1/C=N/N1CCCCC1 | 148 | 18 | – | > 10000 | 23.4 | 691 | 50 | 60 | 32.4 | 49 | 12.6 | 365 | – | – | – | –
COc1ccc(/N=C/c2c(N)ncnc2Nc2ccc3c(cnn3Cc3cccc(F)c3)c2)cc1 | 1290 | 118 | 49 | – | – | – | – | – | – | – | – | – | – | – | – | –
COC[C@@H]1CCCN1/N=C/c1c(N)ncnc1Nc1ccc2c(cnn2Cc2cccc(F)c2)c1 | 426 | 39 | 26 | – | – | – | – | – | – | – | – | – | – | – | – | –
CN(C)/N=C/c1c(N)ncnc1Nc1ccc2c(cnn2Cc2cccc(F)c2)c1 | 105 | 2 | 8 | > 100000 | – | 148 | – | – | – | 63 | – | 131 | 10.1 | 6.3 | 4.6 | 13.2
